According to ChEMBL document CHEMBL1144312, “Synthesis of mono-glucose-branched cyclodextrins with a high inclusion ability for doxorubicin and their efficient glycosylation using Mucor hiemalis endo-beta-N-acetylglucosaminidase” (Bioorg Med Chem Lett, 2005):

Assays:
[1] = tested on: doxorubicin (immobilized ligand, no protein target); assay: Association constant for cyclodextrin binding to immobilized doxorubicin by SPR biosensor
[2] = tested on: doxorubicin (immobilized ligand, no protein target); assay: Association rate constant for cyclodextrin binding to immobilized doxorubicin by SPR biosensor
[3] = tested on: doxorubicin (immobilized ligand, no protein target); assay: Dissociation rate constant for cyclodextrin binding to immobilized doxorubicin by SPR biosensor

Ka [1]: 220 10E3·1/M
K ass [2]: 4.6 10E3·1/M·1/s
K diss [3]: 2.1 10E-2·1/s
Compound: OCC1OC2OC3C(CO)OC(OC4C(CO)OC(OC5C(COCCCOc6ccc(O[C@@H]7O[C@@H](CO)[C@@H](O)[C@H](O)[C@@H]7O)cc6)OC(OC6C(CO)OC(OC7C(CO)OC(OC8C(CO)OC(OC1C(O)C2O)C(O)C8O)C(O)C7O)C(O)C6O)C(O)C5O)C(O)C4O)C(O)C3O (stereo partly drawn)
